Read-outs that look alike come from different tables or passages of the source. Each block holds one molecule with its values, some of them ahead of it.
Experiments:
[1] = tested on: CYP7A1 expression in Hep3B cells; assay: CYP7A1 mRNA expression (qPCR, relative to Actin) in Hep3B cells
Description: (§1) Fenofibrate or fenofibric acid was applied at a concentration of 2, 5, and 10 μM added simultaneously in combination with 30 nM of BLU-554 in growth media (DMEM supplemented with 10% Fetal Bovine Serum), for 18 hours. mRNA was then isolated and CYP7A1 expression was measured using TaqMan™ qPCR Assays (CYP7A1 assay ID: Hs00167982_m1, ACTNB assay ID: Hs99999903_m1).
(§2) Hep3B and HUH-7 cells were treated with 10 μg/ml mouse Isotype monoclonal IgG control (R&D-MAB002), or 2 μg/ml, 5 μg/ml, and 10 μg/ml of hFGF19 Antibody (R&D-AF969) for 24 hours. mRNA was then isolated and CYP7A1 expression was measured using qPCR. The depicted data represent the fold change in CYP7A1 mRNA levels compared to vehicle (DMSO) treated cells, and Actin was used as internal control.
(§3) Hep3B and HUH-7 cells were treated with 10 μg/ml of hFGF19 Antibody (R&D-AF969) in combination with 2 μM, 5 μM, or 10 μM of fenofibrate, for 24 hours. Two control groups included; untreated cells, and cell treated with 10 μg/ml mouse Isotype monoclonal IgG (R&D-MAB002), for 24 hours.

[2] = tested on: serum C4 (7-alpha-hydroxy-4-cholestene-3-one); assay: Serum C4 in athymic nude (Nu/Nu) mice; format: in vivo; settings: FGF401 at 30 mg/kg, H3B-6527 at 300 mg/kg
bile acid (BA) levels = assay: Bile acid levels in liver, plasma and gallbladder of athymic nude mice; settings: oral, BID, 3 weeks; H3B-6527 300 mg/kg, FGF401 30 mg/kg; 4 hours after final dose; vs vehicle
Description: FIGS. 14A-14C are bar graphs depicting changes in bile acid (BA) levels (fold change over control) in liver (FIG. 14A), plasma (FIG. 14B), and gallbladder (FIG. 14C) of athymic nude (Nu/Nu) mice treated orally with vehicle ((1) 0.5% MC/tween), H3B-6527 ((2) 300 mg/kg, BID), or FGF401/Roblitinib ((3) 30 mg/kg, BID), for 3 weeks. Four hours after the final dose, mice were euthanized and plasma, liver and gallbladder samples were collected, and bile acid levels measured.
FIGS. 14A-14C are bar graphs depicting changes of bile acid (BA) levels (fold change over control) in liver (FIG. 14A), plasma (FIG. 14B), and gallbladder (FIG. 14C) of athymic nude (Nu/Nu) mice treated orally with vehicle (0.5% MC/tween), H3B-6527 (300 mg/kg, BID), or FGF401/Roblitinib (30 mg/kg, BID), for 3 weeks. Four hours after the final dose, mice were euthanized and plasma, liver and gallbladder samples were collected and bile acid levels measured. Bile acids were measured at the metabolomics core facility of University of Kansas Medical Center, following an established protocol.

[3] = tested on: CYP7A1 expression in HuH-7 cells; assay: CYP7A1 mRNA expression (qPCR, relative to Actin) in HuH-7 cells
Description: as §1, §2, §3

[4] = tested on: serum C4 (7-alpha-hydroxy-4-cholestene-3-one); assay: Serum C4 in athymic nude mice carrying HuH-7 tumors; format: in vivo; settings: 14 days; for serum C4 levels: HuH-7 tumor-bearing mice, inhibitor alone: BLU554 100 mg/kg BID, FGF401 30 or 100 mg/kg BID
[5] = tested on: Cyp7a1 mRNA expression in mouse livers; assay: Liver Cyp7a1 mRNA expression in mice
Description: For the in vivo experiments, male C57BL/6 mice were dosed orally with vehicle, fenofibrate, an FGFR4 inhibitor, or with a combination of fenofibrate and an FGFR4 inhibitor at the doses indicated. Before the final day of the study, animals were fasted overnight and serum was collected 4 hours after the final dose. Serum C4 (7-alpha-hydroxy- 4-cholestene-3-one) analyses were carried out on an Agilent 6495 triple quadrupole mass spectrometer with jet stream source coupled to an Agilent 1290 UPLC stack. Data was processed using Waters TargetLynx data processing software. Calibration curves were generated using reference standard (7A4C; Sigma-Aldrich). Calibration range was from 0.5ng/ml-200 ng/ml with an internal deuterated standard (7A4C-D7; Avanti Polar Lipids) concentration of 100 ng/ml. The vehicle for fenofibrate, FGF401 and H3B-6527 was 0.5% methylcellulose/0.5% tween 80 (MC/Tween), and the vehicle for BLU554 was 80% PEG400/4% hydroxypropyl-β-cyclodextrin (HPBCD). When combination treatments were tested, the vehicle treatment groups received both vehicles, formulated separately. In the combination treatment groups, the compounds were formulated and dosed separately.

[6] = tested on: serum C4 (7-alpha-hydroxy-4-cholestene-3-one); assay: Serum C4 in C57BL/6 mice dosed orally
Description: For the in vivo experiments, male C57BL/6 mice were dosed orally with vehicle, fenofibrate, an FGFR4 inhibitor, or with a combination of fenofibrate and an FGFR4 inhibitor at the doses indicated. Before the final day of the study, animals were fasted overnight and serum was collected 4 hours after the final dose. Serum C4 (7-alpha-hydroxy- 4-cholestene-3-one) analyses were carried out on an Agilent 6495 triple quadrupole mass spectrometer with jet stream source coupled to an Agilent 1290 UPLC stack. Data was processed using Waters TargetLynx data processing software. Calibration curves were generated using reference standard (7A4C; Sigma-Aldrich). Calibration range was from 0.5ng/ml-200 ng/ml with an internal deuterated standard (7A4C-D7; Avanti Polar Lipids) concentration of 100 ng/ml. […] When combination treatments were tested, the vehicle treatment groups received both vehicles, formulated separately. In the combination treatment groups, the compounds were formulated and dosed separately. The mean C4 value for each group of 4 mice is shown, and error bars represent standard error of the mean.

SMILES: C=CC(=O)N1CC[C@H](n2nc(C#Cc3cc(OC)cc(OC)c3)c3c(N)ncnc32)C1 [futibatinib]
CYP7A1 expression (Relative mRNA expression/Actin) ([1]; Hep3B cells, increasing concentrations of inhibitor alone, 18 hours): increased CYP7A1 expression
CYP7A1 expression (Relative mRNA expression/Actin) ([3]; HuH-7 cells, increasing concentrations of inhibitor alone, 18 hours): increased CYP7A1 expression

SMILES: CC(C)OC(=O)C(C)(C)Oc1ccc(C(=O)c2ccc(Cl)cc2)cc1 [fenofibrate]
liver Cyp7a1 mRNA expression (% Actb) ([5]; fenofibrate co-administered with BLU-554 (100 mg/kg)): reversed BLU-554-induced Cyp7a1 upregulation in mouse livers, in a dose dependent manner
rise in serum C4 ([4]; fenofibrate 40 mg/kg QD plus BLU554 100 mg/kg BID): significantly attenuated the rise in C4
rise in serum C4 ([4]; fenofibrate 40 mg/kg QD plus FGF401 30 mg/kg BID): attenuated the rise in C4
serum C4 levels ([6]; different doses of fenofibrate in combination with BLU-554 (100 mg/Kg), 6 days): reduced the increase in C4 caused by BLU554

Other lines, results leading:

CYP7A1 expression (Relative mRNA expression/Actin) [1]: increased CYP7A1 expression
levels of serum C4 [2]: increases in levels of serum C4
bile acids level in gall bladder (fold change over control) (bile acid (BA) levels): increased bile acids level
bile acids level in liver (fold change over control) (bile acid (BA) levels): increased bile acids level
bile acids level in plasma (fold change over control) (bile acid (BA) levels): increased bile acids level
CYP7A1 expression (Relative mRNA expression/Actin) [3]: increased CYP7A1 expression
serum C4 levels [4]: significantly raised levels
SMILES: COCCNc1cc(NC(=O)N2CCCc3cc(CN4CCN(C)CC4=O)c(C=O)nc32)ncc1C#N [FGF-401, roblitinib]

CYP7A1 expression (Relative mRNA expression/Actin) [1]: increased CYP7A1 expression
liver Cyp7a1 mRNA expression (% Actb) ([5]; BLU-554 (100 mg/kg) alone): Cyp7a1 upregulation
CYP7A1 expression (Relative mRNA expression/Actin) [3]: increased CYP7A1 expression
serum C4 levels [4]: significantly raised levels
levels of serum C4 ([6]; C57BL/6 mice, BLU554 at 100 mg/kg): increases in levels of serum C4
SMILES: C=CC(=O)N[C@H]1CCOC[C@H]1Nc1ncc2cc(-c3c(Cl)c(OC)cc(OC)c3Cl)ccc2n1 [BLU-554, fisogatinib]

levels of serum C4 [2]: increases in levels of serum C4
SMILES: C=CC(=O)Nc1cc(N2CCN(CC)CC2)ccc1Nc1cc(N(C)C(=O)Nc2c(Cl)c(OC)cc(OC)c2Cl)ncn1 [H3B-6527]

CYP7A1 expression (Relative mRNA expression/Actin) [1]: increased CYP7A1 expression
CYP7A1 expression (Relative mRNA expression/Actin) [3]: increased CYP7A1 expression
SMILES: COc1cc(OC)cc(N(CCNC(C)C)c2ccc3ncc(-c4cnn(C)c4)nc3c2)c1 [erdafitinib]
